Source: paper PMC12549899 (Nature Communications, 2025)
Several values for one entry are separate records, joined by “and”; a condition that tells them apart may be missing. Identical values can stand only once.

Target: T1, DrOTOP1 G130W (Danio rerio, UniProt Q7ZWK8, G130W)
T1 construct: A previously generated codon-optimized full-length DrOTOP1[8]; (UniProt: Q7ZWK8) construct; expressed in transfected cells; host or cells: HEK-293 (CRL-1573, ATCC)
T1 sequence (Q7ZWK8 1-586 G130W): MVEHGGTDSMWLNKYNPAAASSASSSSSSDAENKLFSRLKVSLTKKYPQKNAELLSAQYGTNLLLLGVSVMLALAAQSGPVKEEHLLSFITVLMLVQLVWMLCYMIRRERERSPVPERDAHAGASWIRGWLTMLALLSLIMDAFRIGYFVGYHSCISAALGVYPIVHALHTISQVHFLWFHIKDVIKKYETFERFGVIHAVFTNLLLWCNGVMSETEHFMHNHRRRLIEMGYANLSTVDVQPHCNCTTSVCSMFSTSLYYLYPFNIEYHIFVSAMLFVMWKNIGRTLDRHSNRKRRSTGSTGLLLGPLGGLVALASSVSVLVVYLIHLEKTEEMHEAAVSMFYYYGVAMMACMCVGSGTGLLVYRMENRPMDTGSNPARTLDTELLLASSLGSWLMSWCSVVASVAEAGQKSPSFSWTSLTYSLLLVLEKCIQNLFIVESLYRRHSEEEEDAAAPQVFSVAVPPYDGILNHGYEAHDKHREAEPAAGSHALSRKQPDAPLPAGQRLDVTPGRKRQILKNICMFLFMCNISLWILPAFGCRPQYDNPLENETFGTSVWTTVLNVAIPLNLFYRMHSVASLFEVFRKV
Test: Whole-cell patch-clamp, inhibition of acid-evoked currents, DrOTOP1 G130W (outer site)
Format: cell-based, zebrafish (Danio rerio)
Description: To functionally test the significance of the two binding sites identified by cryo-EM, we generated point mutations of DrOTOP1 using the binding poses and conformational changes observed in DrOTOP1_C2.2 to guide our mutations. As per the binding pose that best fits our cryo-EM density, C2.2 forms the following interactions in the outer site: hydrophobic packing against many non-polar residues W126, G130, M133, L134, F271, F570, and M573, and π-stacking with W532 (Fig. 5A). In addition, C2.2 could potentially form H-bonds with E267, if the sidechain is protonated or a water bridge is present, and with H574 if it moves closer (Fig. 5A). Likewise, C2.36 presents a heterocyclic nitrogen that can potentially form a H-bond with E267, similarly, provided a protonation or water bridge is present (Fig. 5B). In addition, C2.36 forms a T-shaped π-stacking interaction with H574, whose sidechain has rotated 90 degrees (compared to DrOTOP1_apo), presumably to accommodate the interaction (Fig. 5B). Considering other inhibitors discovered from the second round of screening, many contain functional groups like the carbonyl groups of Group 1 molecules and the heterocyclic nitrogen atoms of Group 2 molecules (Supplementary Fig. 3E), that can potentially form similar H-bonds with E267 as C2.2 and C2.36, assuming the binding modes are similar. In the central site, C2.2 binds with the following interactions: hydrophobic packing with residues V201, F271, A274, V278, and A388, π-stacking with F277, and H-bonding with E384 (Fig. 5C).
Each non-aromatic residue was mutated to tryptophan, which was expected to cause steric occlusion. […] This seemed appropriate given the small number of H-bonds in these pockets, the ambiguity of how the inhibitors fit the density, and the prevalence of hydrophobic packing interactions (Fig. 5A–C).
HEK-293 cells (CRL-1573, ATCC) were cultured in DMEM (Thermofisher 11995073) containing 10% fetal bovine serum (Life Technology 16000044) and Penicillin-Streptomycin (100 I.U./mL) and (100 µg/mL), respectively. Cells were transfected with WT DrOTOP1 or mutant DrOTOP1 channels in 35 mm petri dishes, with ~ 500 ng DNA and 2 μL TransIT-LT1 transfection reagent (Mirus Bio Corporation, Cat # MIR2300) following the manufacturer’s protocol. All constructs were subcloned into a pcDNA3.1 vector that adds an N-terminal fusion tag consisting of an octahistidine tag followed by eGFP, a Gly-Thr-Gly-Thr linker and a 3C protease cleavage site ([…]) followed by WT DrOTOP1, WT mOTOP1, WT hOTOP1, or mutated DrOTOP1. Point mutations were generated via In-Fusion Cloning (Takara) using single-stranded DNA primers generated through IDT and sequence confirmed by Sanger sequencing (GeneWiz).
Whole-cell patch-clamp recording was performed as previously described[6],[22],[25]. Recordings were made with an Axopatch 200B amplifier, digitized with a Digidata 1322a 16-bit data acquisition system, acquired with pClamp 8.2 and analyzed with Clampfit 10 (Molecular Devices). Recordings were sampled at 5 kHz and filtered at 1 kHz. Patch Pipettes with resistance of […] were fabricated from borosilicate glass, and only recordings with a giga-Ohm seal were used in analysis. Membrane potential was held at −80 mV for the duration of recordings. At the beginning of recordings and between, cells were washed with Tyrode’s solution (see below). Once a giga-Ohm seal was reached, cells were lifted and placed in front of microcapillary tubes controlled by a Fast-Step perfusion system (Warner Instruments) so that extracellular solutions could be rapidly exchanged during each experiment.
Standard Tyrode’s solution consisted of 145 mM NaCl, 5 mM KCl, MgCl2, 2 mM CaCl2, 20 mM D-Glucose, and 10 mM HEPES (for pH 7.4). All other extracellular patch-clamp solutions contained 160 mM NMDG-Cl, 2 mM CaCl2, and the following buffers: 10 mM HEPES (for pH 7.4), 10 mM MES (for pH 6.5-5.5), 10 mM CHES for pH 10, and 10 mM HomoPIPES for (pH 5.0). pH adjusted with HCl. […]

SMILES | inhibition at 30 µM (30 µM, DrOTOP1 G130W, single cells) | inhibition at 100 µM (DrOTOP1 G130W, single cells) | Hill coefficient (DrOTOP1 G130W) | IC50 (DrOTOP1 G130W, pH 5.5) | Mean, Fig 5N (G130W + C2.2, n=5) | Disruption of inhibitory activity by site-directed mutagenesis of outer site residues (outer site mutants compared with WT)
C=C(C)COc1ccccc1NC(=O)c1nc[nH]c1C [C2.2] | 15.3% | 42.4% | 1.123 | 130 µM and 138 µM | 15.24 | ≤ 20 fold
O=C(/C(=N\O)c1ccccc1)c1ccccc1 [C11, benzil monoxime] |  | 62.7% |  |  |  | 
